Assay: Storage stability at room temperature
Format: physicochemical
Details: stability to air and water-deliquescence

For `O=C(O)CN(CCN1CC(=O)OC(=O)C1)CCN1CC(=O)OC(=O)C1` [DTPA anhydride], the “storage time in room temperature” value was “much unstable and easy to water-deliquescent”.
